# According to patent US20220033434A1, “ANDROGEN RECEPTOR NUCLEIC ACIDS AND USES THEREOF” (Avidity Biosciences, Inc., priority 2016, published 2022):
# In the oligonucleotide strings, read from the 5' end, every base follows the letter of its sugar. An asterisk marks phosphorothioate; unmarked linkages are phosphodiester. Other units and linkages are bracketed, terminal groups are in braces. A string of capitals states the bases alone. d = 2'-deoxy (DNA); m = 2'-O-methyl; f = 2'-fluoro
# Assays:
# Assay type in all cases: cell-based, human
# [1] = system: AR-SV(2); test: AR protein knock-down by Western blot after siRNA transfection in 22RV1 cells: AR-SV(2); conditions: 5 nM siRNA, 50 h post transfection, compared to controls
# Description: (§1) In some instances, a set of AR siRNAs were identified that were predicted to be specific in human and non-human primates (NHP) and cross-reactive with NHPs but not rodent AR mRNA. To identify AR siRNAs that regulate both full length AR and clinically relevant AR splice variants, the search for AR siRNAs was focused primarily, but not exclusively, on exons 1, 2 and 3 of the AR gene, which are common to most AR isoforms. The resulting set of 50 AR siRNAs (Tables 1-3) was assessed in two prostate cancer lines that express high levels of either clinically relevant AR splice variants (22RV1, ATCC) or a full length AR T877A LBD mutant (LNCaP, ATCC). The response of LNCaP tumors in xenograft models to AR antagonists is known to correlate well with clinical responses.
# (§2) To monitor their ability to downregulate various AR isoforms, each siRNA was formulated at a single final concentration of 5 nM with a commercially-available transfection reagent (Lipofectamine RNAiMAX, Life Technologies) according to the manufacturer's “forward transfection” instructions. At 50 h (22RV1) and 72 h (LNCaP) post transfection, cells were harvested, and lysed in RIPA buffer (Pierce) supplemented with HALT protease inhibitors (Pierce) using standard procedures. The protein concentration was determined using a BCA protein concentration kit (Pierce). To monitor AR levels in these lysates, proteins (30 ug/lane) were separated by PAGE on BOLT 4-12% Bis-Tris PA gels (Life Technologies), transferred to nitrocellulose using an iBlot dry blot system (Thermo Fisher), and probed with specific antibodies against a region of the N-terminal domain of human AR that is common in known clinically relevant splice variants (N20, Santa Cruz Biotech). A second antibody against α-Tubulin was used as control (P16, Santa Cruz Biotech). Levels of these proteins in the respective cell lysates were quantified on an Odyssey imaging system (LICOR) using appropriate secondary antibodies linked to IRDyes (800CW, 680RD).
# [2] = system: AR-SV(3); test: AR protein knock-down by Western blot after siRNA transfection in 22RV1 cells: AR-SV(3); conditions: 5 nM siRNA, 50 h post transfection, compared to controls
# Description: as §1, §2
# [3] = system: AR FL(1); test: AR protein knock-down by Western blot after siRNA transfection in 22RV1 cells: AR FL(1); conditions: 5 nM siRNA, 50 h post transfection, compared to controls
# Description: as §1, §2
# [4] = system: AR FL (full length AR T877A LBD mutant); test: AR protein knock-down by Western blot after siRNA transfection in LNCaP cells: AR FL; conditions: 5 nM siRNA, 72 h post transfection, compared to controls
# Description: as §1, §2
Substance,% KD AR Protein 22RV1 AR-SV(2) [1] [%],% KD AR Protein 22RV1 AR-SV(3) [2] [%],% KD AR Protein 22RV1 AR FL(1) [3] [%],% KD AR Protein LNCaP AR FL [4] [%]
"XD-01852: AR siRNA with chemical modification, Id # 3218; sense X05399 (SEQ ID NO: 229), antisense X05400 (SEQ ID NO: 230) (sense mGmCfUmCfUmCfUmAfGmCfCmUfCmAfAmUfGmAfAdT*dT; antisense fUfUmCfAmUfUmGfAmGfGmCfUmAfGmAfGmAfGmCdT*dT)",8,10,16,34
"XD-01818: AR siRNA with chemical modification, Id # 2045; sense X05331 (SEQ ID NO: 161), antisense X05332 (SEQ ID NO: 162) (sense mCmCfCmUfUmUfCmAfAmGfGmGfAmGfGmUfUmAfCdT*dT; antisense fGfUmAfAmCfCmUfCmCfCmUfUmGfAmAfAmGfGmGdT*dT)",−48,25,−6,93
"XD-01815: AR siRNA with chemical modification, Id # 1968; sense X05325 (SEQ ID NO: 155), antisense X05326 (SEQ ID NO: 156) (sense mGmCfCmCfCmAfUmUfGmGfCmCfGmAfAmUfGmCfAdT*dT; antisense fUfGmCfAmUfUmCfGmGfCmCfAmAfUmGfGmGfGmCdT*dT)",5,−15,−10,91
"XD-01856: AR siRNA with chemical modification, Id # 3469; sense X05407 (SEQ ID NO: 237), antisense X05408 (SEQ ID NO: 238) (sense mGmUfGmUfCmCfGmAfAmUfGmAfGmGfCmAfCmCfUdT*dT; antisense fAfGmGfUmGfCmCfUmCfAmUfUmCfGmGfAmCfAmCdT*dT)",−61,−74,77,99
"XD-01848: AR siRNA with chemical modification, Id # 3101; sense X05391 (SEQ ID NO: 221), antisense X05392 (SEQ ID NO: 222) (sense mGmUfCmAfCmAfCmAfUmUfGmAfAmGfGmCfUmAfUdT*dT; antisense fAfUmAfGmCfCmUfUmCfAmAfUmGfUmGfUmGfAmCdT*dT)",31,27,87,101
"XD-01835: AR siRNA with chemical modification, Id # 2924; sense X05365 (SEQ ID NO: 195), antisense X05366 (SEQ ID NO: 196) (sense mUmAfUmUfGmAfUmAfAmAfUmUfCmCfGmAfAmGfGdT*dT; antisense fCfCmUfUmCfGmGfAmAfUmUfUmAfUmCfAmAfUmAdT*dT)",85,83,89,92
"XD-01855: AR siRNA with chemical modification, Id # 3462; sense X05405 (SEQ ID NO: 235), antisense X05406 (SEQ ID NO: 236) (sense mAmGfCmCfAmGfUmGfUmGfUmCfCmGfAmAfUmGfAdT*dT; antisense fUfCmAfUmUfCmGfGmAfCmAfCmAfCmUfGmGfCmUdT*dT)",−1,−18,12,75
"XD-01851: AR siRNA with chemical modification, Id # 3217; sense X05397 (SEQ ID NO: 227), antisense X05398 (SEQ ID NO: 228) (sense mUmGfCmUfCmUfCmUfAmGfCmCfUmCfAmAfUmGfAdT*dT; antisense fUfCmAfUmUfGmAfGmGfCmUfAmGfAmGfAmGfCmAdT*dT)",2,8,50,84
"XD-01846: AR siRNA with chemical modification, Id # 2975; sense X05387 (SEQ ID NO: 217), antisense X05388 (SEQ ID NO: 218) (sense mUmUfAmUfGmAfAmGfCmAfGmGfGmAfUmGfAmCfUdT*dT; antisense fAfGmUfCmAfUmCfCmCfUmGfCmUfUmCfAmUfAmAdT*dT)",94,76,87,94
"XD-01847: AR siRNA with chemical modification, Id # 3020; sense X05389 (SEQ ID NO: 219), antisense X05390 (SEQ ID NO: 220) (sense mUmGfGmUfAmAfUmCfUmGfAmAfAmCfUmAfCmAfGdT*dT; antisense fCfUmGfUmAfGmUfUmUfCmAfGmAfUmUfAmCfCmAdT*dT)",−10,−68,28,69
"XD-01862: AR siRNA with chemical modification, Id # 3781; sense X05419 (SEQ ID NO: 249), antisense X05420 (SEQ ID NO: 250) (sense mGmCfGmUfGmGfAmCfUmUfUmCfCmGfGmAfAmAfUdT*dT; antisense fAfUmUfUmCfCmGfGmAfAmAfGmUfCmCfAmCfGmCdT*dT)",24,40,92,87
"XD-01845: AR siRNA with chemical modification, Id # 2966; sense X05385 (SEQ ID NO: 215), antisense X05386 (SEQ ID NO: 216) (sense mUmCfGmGfAmAfAmUfGmUfUmAfUmGfAmAfGmCfAdT*dT; antisense fUfGmCfUmUfCmAfUmAfAmCfAmUfUmUfCmCfGmAdT*dT)",92,72,92,99
"XD-01823: AR siRNA with chemical modification, Id # 2739; sense X05341 (SEQ ID NO: 171), antisense X05342 (SEQ ID NO: 172) (sense mAmCfUmGfCmCfAmGfGmGfAmCfCmAfUmGfUmUfUdT*dT; antisense fAfAmAfCmAfUmGfGmUfCmCfCmUfGmGfCmAfGmUdT*dT)",0,−19,−5,79
"XD-01833: AR siRNA with chemical modification, Id # 2922; sense X05361 (SEQ ID NO: 191), antisense X05362 (SEQ ID NO: 192) (sense mAmCfUmAfUmUfGmAfUmAfAmAfUmUfCmCfGmAfAdT*dT; antisense fUfUmCfGmGfAmAfUmUfUmAfUmCfAmAfUmAfGmUdT*dT)",91,77,94,91
"XD-01831: AR siRNA with chemical modification, Id # 2847; sense X05357 (SEQ ID NO: 187), antisense X05358 (SEQ ID NO: 188) (sense mGmGfAmAfGmCfUmGfCmAfAmGfGmUfCmUfUmCfUdT*dT; antisense fAfGmAfAmGfAmCfCmUfUmGfCmAfGmCfUmUfCmCdT*dT)",54,59,57,87
